System: wild type HBV or resistant variants of HBV (polymerase M204V, M204I, L180M, L180M/M204V, N236T)
Assay: Antiviral assays in cells chronically infected with wild type HBV or resistant variants (Example 4)
Format: cell-based
Settings: added to the cells daily for nine consecutive days
Method: Antiviral assays were carried out in cells chronically infected with resistant variants of HBV. In order to gauge the efficacy of Formula (IIa) and the antiviral nucleoside analogs lamivudine (3TC) and adefovir dipivoxil (ADV) against the tested strains, the in vitro activity (EC50, μM) was determined using six different cell samples chronically infected with HBV. Each cell sample was infected with either wild type HBV or a resistant variant of HBV, wherein the resistant variants comprise mutations in the HBV polymerase (P) at the following amino acid positions: M204V, M204I, L180M, L180M/M204V, and N236T. In each assay, Formula (IIa), 3TC, or ADV was added to the cells daily for nine consecutive days.

Structure (SMILES): COC1[C@@H](OP(=O)(OC[C@H]2O[C@@H](n3cnc4c(N)ncnc43)C[C@H]2O)SCOC(=O)OC(C)C)[C@@H](CO)O[C@H]1n1ccc(=O)[nH]c1=O (stereo partly shown) [Formula (IIa)]
- efficacy against cells infected with wild type and resistant HBV strains (in vitro activity, FIG. 31): efficacious against cells infected with all the HBV strains tested
